Tests used:
Test in all cases: relative viability (nuclei count vs DMSO), 5 days (fraction); higher = more cells survive
Tosedostat + Vorinostat = compound: CC(C)C[C@@H](C(=O)N[C@H](C(=O)OC1CCCC1)c1ccccc1)[C@H](O)C(=O)NO [Tosedostat] + O=C(CCCCCCC(=O)Nc1ccccc1)NO [Vorinostat] (partner 1 µM)
Outline: (§1)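 A single step with final 0.05% Triton X-100, 1% formaldehyde and 1 ug/ml Hoechst fixed the cells and stained nuclei 5 days after treatment. Lung cancer cell lines in 1536-well plates had been treated by pin tool the day after seeding with one drug alone or a fixed anchor-drug dose plus five library-drug doses (not always all listed) in √10 steps, and nuclei were counted on 4× images. Relative viability is the ratio of nuclei in treated wells to nuclei in vehicle wells, taken as the median of duplicate plates.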

Tosedostat + Phenformin = compound: CC(C)C[C@@H](C(=O)N[C@H](C(=O)OC1CCCC1)c1ccccc1)[C@H](O)C(=O)NO [Tosedostat] + N=C(N)NC(=N)NCCc1ccccc1 [Phenformin] (partner 250 µM)
Outline: as §1

[1] = compound: CC1=NN=C(O1)C2=NN=C(C=C2)N3CCC(CC3)OC4=C(C=CC(=C4)F)Cl + O=C(CCCCCCC(=O)Nc1ccccc1)NO [Vorinostat] (partner 1 µM)
Outline: as §1

[2] = compound: CC1=NN=C(O1)C2=NN=C(C=C2)N3CCC(CC3)OC4=C(C=CC(=C4)F)Cl + CS(=O)(=O)CCNCc1ccc(-c2ccc3ncnc(Nc4ccc(OCc5cccc(F)c5)c(Cl)c4)c3c2)o1 [Lapatinib] (partner 2 µM)
Outline: as §1

| Cell Line | relative viability (Tosedostat + Vorinostat; first compound 0.06325 µM) | relative viability (Tosedostat + Vorinostat; first compound 0.2 µM) | relative viability (Tosedostat + Vorinostat; first compound 0.6325 µM) | relative viability (Tosedostat + Vorinostat; first compound 2 µM) | relative viability (Tosedostat + Phenformin; first compound 0.02 µM) | relative viability (Tosedostat + Phenformin; first compound 0.06325 µM) | relative viability (Tosedostat + Phenformin; first compound 0.2 µM) | relative viability (Tosedostat + Phenformin; first compound 0.6325 µM) | relative viability (Tosedostat + Phenformin; first compound 2 µM) | relative viability ([1]; first compound 0.253 µM) | relative viability ([1]; first compound 0.8 µM) | relative viability ([1]; first compound 2.53 µM) | relative viability ([1]; first compound 8 µM) | relative viability ([2]; first compound 0.253 µM) | relative viability ([2]; first compound 0.8 µM) | relative viability ([2]; first compound 2.53 µM) | relative viability ([2]; first compound 8 µM) | relative viability (Tosedostat + Vorinostat; first compound 0.02 µM) |
| --- | --- | --- | --- | --- | --- | --- | --- | --- | --- | --- | --- | --- | --- | --- | --- | --- | --- | --- |
| NCI-H2085 | 0.831 | 0.748 | 0.897 | 0.74 | 0.55 | 0.646 | 0.713 | 0.673 | 0.682 | 0.649 | 0.557 | 0.687 | 0.58 | 0.644 | 0.627 | 0.752 | 0.612 |  |
| CAL-12T | 0.678 | 0.656 | 0.572 | 0.685 | 0.639 | 0.552 | 0.508 | 0.446 | 0.371 | 0.524 | 0.542 | 0.566 | 0.368 | 0.59 | 0.565 | 0.579 | 0.425 | 1.05 |
| NCI-H1623 |  |  |  |  | 0.558 | 0.609 | 0.622 | 0.519 | 0.618 |  |  |  |  |  |  |  |  |  |
| HCC-44 | 1.07 | 1.09 | 1.04 | 1.07 | 0.19 | 0.221 | 0.183 | 0.111 | 0.117 | 0.584 | 0.708 | 0.698 | 0.423 | 0.324 | 0.439 | 0.383 | 0.43 | 1.26 |
| EKVX | 0.647 | 0.764 | 0.688 | 0.773 | 0.216 | 0.236 | 0.228 | 0.202 | 0.192 | 0.439 | 0.381 | 0.442 | 0.463 | 0.175 | 0.178 | 0.187 | 0.193 | 0.722 |
| NCI-H1734 | 0.757 | 0.886 | 0.612 | 0.514 | 0.453 | 0.399 | 0.393 | 0.372 | 0.345 | 0.721 | 0.692 | 0.721 | 0.737 | 0.954 | 0.683 | 0.908 | 0.882 | 0.949 |
| NCI-H1944 | 0.505 | 0.653 | 0.523 | 0.556 | 0.21 | 0.194 | 0.217 | 0.196 | 0.211 | 0.349 | 0.329 | 0.427 | 0.393 | 0.452 | 0.526 | 0.553 | 0.426 | 0.632 |
| NCI-H1792 |  |  |  |  | 0.243 | 0.472 | 0.445 | 0.404 | 0.31 |  |  |  |  | 0.417 | 0.436 | 0.404 | 0.502 |  |
| Calu-6 |  |  |  |  |  |  |  |  |  |  |  |  |  | 0.65 | 0.604 | 0.636 | 0.557 |  |
| EBC-1 |  |  |  |  |  |  |  |  |  |  |  |  |  | 0.208 | 0.191 | 0.182 | 0.197 |  |
| NCI-H596 | 0.706 | 0.816 | 0.692 | 0.616 | 0.734 | 0.762 | 0.761 | 0.72 | 0.599 | 0.474 | 0.564 | 0.6 | 0.567 |  | 0.845 | 0.932 | 0.888 | 0.731 |
| A-427 | 0.893 | 0.85 | 0.853 | 0.801 | 0.322 | 0.393 | 0.376 | 0.301 | 0.323 | 0.796 | 0.689 | 0.791 | 0.703 | 0.818 |  | 0.825 | 0.54 | 0.893 |
| NCI-H441 | 0.654 | 0.759 | 0.55 | 0.547 | 0.861 | 0.833 | 0.569 | 0.61 | 0.713 | 0.424 | 0.384 | 0.302 | 0.382 |  |  |  |  | 0.809 |
| NCI-H1563 |  |  |  |  | 0.653 | 0.703 | 0.662 | 0.722 | 0.65 |  |  |  |  | 0.804 | 0.992 | 0.88 | 0.82 |  |
| NCI-H358 | 0.562 | 0.478 | 0.313 | 0.264 | 0.387 | 0.3 | 0.223 | 0.219 | 0.238 | 0.405 | 0.341 | 0.399 | 0.35 | 0.545 | 0.447 | 0.55 | 0.451 | 0.669 |
| LOU-NH91 | 0.932 | 0.898 | 0.764 | 0.693 | 0.823 | 0.742 | 0.691 | 0.677 | 0.481 |  | 0.853 | 0.807 | 0.922 |  | 0.7 | 0.717 | 0.687 | 0.983 |
| NCI-H3122 | 1.06 | 1.46 | 0.879 | 0.954 | 0.415 | 0.385 | 0.362 | 0.368 | 0.292 | 0.484 | 0.484 | 0.443 | 0.345 | 0.519 | 0.675 | 0.52 | 0.449 | 1.02 |
| HOP-62 | 0.516 | 0.612 | 0.561 | 0.372 | 0.663 | 0.615 | 0.685 | 0.569 | 0.437 | 0.543 | 0.243 | 0.287 | 0.203 | 0.799 |  | 0.523 | 0.684 | 0.819 |
| HARA | 0.531 | 0.544 | 0.377 | 0.295 | 0.505 | 0.383 | 0.433 | 0.326 | 0.35 | 0.476 | 0.345 | 0.499 | 0.432 | 0.397 | 0.363 | 0.403 | 0.285 | 1.35 |
| SW 1573 | 0.718 | 0.81 | 0.671 | 0.614 | 0.417 | 0.364 | 0.302 | 0.336 | 0.342 | 0.717 | 0.421 | 0.434 | 0.251 | 1.03 | 1.09 | 0.877 | 0.932 | 0.984 |
| NCI-H1993 | 0.728 | 0.588 | 0.608 | 0.548 | 0.514 | 0.507 | 0.459 | 0.497 | 0.499 | 0.681 | 0.763 | 0.766 | 0.762 | 0.778 | 0.801 | 0.737 | 0.695 | 0.732 |
